Measurements from US20230265151A1, “GIP/GLP1 CO-AGONIST COMPOUNDS” (priority 2020, published 2023).
Read-outs that look alike come from different tables or passages of the source. *1 amine or outer side, *2 acyl side, *3 side chain or, on linkers, in order; H or OH if unused. Where a SMILES comes first, the peptide text is derived from it. Side-chain parts run from the residue outwards. [ ]: non-standard residue; d: D form. The star is where a group is joined. Butanoyl(4-(4-tBuPh)) = CC(C)(C)c1ccc(CCCC(=O)*)cc1; αMePhe(2-F) = C[C@](N)(Cc1ccccc1F)C(=O)O; γGlu = O=C(O)[C@H](CCC(=O)[*:2])N[*:1]; αMeY = C[C@](N)(Cc1ccc(O)cc1)C(=O)O; 4Pal = N[C@@H](Cc1ccncc1)C(=O)O; αMeL = CC(C)C[C@](C)(N)C(=O)O; Orn = NCCC[C@H](N)C(=O)O; AEEA = NCCOCCOCC(=O)O; Aib = CC(C)(N)C(=O)O

Assays:
Type in all cases: cell-based
[1] = target: hGLP-1R (Homo sapiens, UniProt P43220); assay: Functional cAMP formation (HTRF) in HEK-293 clonal cells expressing hGLP-1R, 0.1% bovine casein, without or with 1.0% human serum albumin; set-up: expressed in transfected cells; settings: for EC50: geometric mean; for Emax: read-out: hGLP-1R Emax, % ± SEM
Procedure, shortened: (§1)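 Cells were stimulated with peptide for 30 min at 37° C, then intracellular cAMP was measured by competitive HTRF (665/620 nm ratio) and converted to nM using a cAMP standard curve. Relative EC50 and Emax came from four-parameter logistic fits of percent maximal response against peptide concentration.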

[2] = target: T1, hGCGR (Homo sapiens, UniProt P47871); assay: Functional cAMP formation (HTRF) in HEK-293 clonal cells expressing hGCGR, 0.1% bovine casein, without or with 1.0% human serum albumin; settings: geometric mean
T1 construct: expressed in transfected cells
Procedure, shortened: as §1

[3] = target: T2, hGIPR (Homo sapiens, UniProt P48546); assay: Functional cAMP formation (HTRF) in HEK-293 clonal cells expressing hGIPR, 0.1% bovine casein, without or with 1.0% human serum albumin; settings: for EC50: geometric mean, read-out: hGIPR EC50, nM (SEM, n)
T2 construct: expressed in transfected cells
T2 sequence (P48546 22-466): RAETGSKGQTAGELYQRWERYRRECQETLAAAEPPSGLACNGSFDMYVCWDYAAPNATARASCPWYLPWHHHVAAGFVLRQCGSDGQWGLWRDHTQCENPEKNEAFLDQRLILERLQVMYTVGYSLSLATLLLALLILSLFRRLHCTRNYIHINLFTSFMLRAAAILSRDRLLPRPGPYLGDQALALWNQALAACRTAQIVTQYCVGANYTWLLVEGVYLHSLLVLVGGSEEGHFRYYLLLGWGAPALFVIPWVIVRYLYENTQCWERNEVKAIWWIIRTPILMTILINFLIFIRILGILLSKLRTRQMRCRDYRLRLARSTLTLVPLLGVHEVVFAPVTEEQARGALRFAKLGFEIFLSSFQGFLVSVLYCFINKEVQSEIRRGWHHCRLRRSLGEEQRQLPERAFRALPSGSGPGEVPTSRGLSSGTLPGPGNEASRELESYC
Procedure, shortened: as §1

[4] = 0.1% bovine casein and 1.0% human serum albumin, 37° C., read-out: hGLP-1R EC50, nM (SEM, n)
[5] = HEK293, 0.1% bovine casein and 1.0% human serum albumin, 37° C., percent of maximal response to GLP-1(7-36)NH2
[6] = cAMP, incubated at 37° C., 0.1% bovine casein (no human serum albumin), read-out: hGLP-1R EC50, nM (SEM, n)
[7] = 0.1% bovine casein and 1.0% human serum albumin, 37° C., read-out: hGCGR EC50, nM (SEM, n)
[8] = cAMP, incubated at 37° C., 0.1% bovine casein (no human serum albumin), read-out: hGCGR EC50, nM (SEM, n)
[9] = 0.1% bovine casein and 1.0% human serum albumin, 37° C.
[10] = HEK293, 0.1% bovine casein and 1.0% human serum albumin, 37° C., percent of maximal response to GIP(1-42)NH2, read-out: hGIPR Emax, % ± SEM
[11] = cAMP, incubated at 37° C., 0.1% bovine casein (no human serum albumin)

T1 sequence (P47871 26-477): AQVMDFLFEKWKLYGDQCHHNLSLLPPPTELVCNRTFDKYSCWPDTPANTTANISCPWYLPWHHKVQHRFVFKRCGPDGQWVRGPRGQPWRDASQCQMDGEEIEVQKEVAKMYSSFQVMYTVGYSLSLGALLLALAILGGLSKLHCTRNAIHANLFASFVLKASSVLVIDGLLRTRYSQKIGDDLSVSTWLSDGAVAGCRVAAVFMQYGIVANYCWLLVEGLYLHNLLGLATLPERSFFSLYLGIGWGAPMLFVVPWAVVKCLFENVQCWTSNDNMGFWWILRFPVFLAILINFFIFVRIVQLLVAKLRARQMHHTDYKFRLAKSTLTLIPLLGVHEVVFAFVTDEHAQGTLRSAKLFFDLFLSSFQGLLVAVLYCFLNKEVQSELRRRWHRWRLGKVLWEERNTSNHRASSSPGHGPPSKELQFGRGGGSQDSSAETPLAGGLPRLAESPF
Sequence of hGLP-1R (P43220 24-463): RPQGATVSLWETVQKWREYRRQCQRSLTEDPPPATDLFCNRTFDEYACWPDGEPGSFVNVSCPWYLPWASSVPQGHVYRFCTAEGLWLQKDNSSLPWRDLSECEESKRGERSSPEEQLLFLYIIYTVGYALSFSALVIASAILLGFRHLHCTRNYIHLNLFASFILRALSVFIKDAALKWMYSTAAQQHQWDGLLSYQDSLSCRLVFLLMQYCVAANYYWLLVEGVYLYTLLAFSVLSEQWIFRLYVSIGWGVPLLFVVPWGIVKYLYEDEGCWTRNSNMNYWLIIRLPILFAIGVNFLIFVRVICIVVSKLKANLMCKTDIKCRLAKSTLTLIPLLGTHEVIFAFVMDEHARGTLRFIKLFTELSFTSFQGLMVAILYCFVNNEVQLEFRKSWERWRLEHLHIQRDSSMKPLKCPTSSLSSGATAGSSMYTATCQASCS

CC[C@H](C)[C@H](NC(=O)[C@H](CC(C)C)NC(=O)[C@](C)(Cc1ccc(O)cc1)NC(=O)[C@@H](CCC(=O)O)NC(=O)[C@@H](NC(=O)[C@H](Cc1ccccc1)NC(=O)[C@H](CCCCNC(=O)COCCOCCNC(=O)COCCOCCNC(=O)CC[C@H](NC(=O)CCCCCCCCCOc1ccc(C(=O)O)cc1)C(=O)O)NC(=O)C(C)(C)NC(=O)[C@H](CCC(N)=O)NC(=O)[C@H](C)NC(=O)[C@H](CCCCNC(=O)COCCOCCNC(=O)COCCOCCNC(=O)CC[C@H](NC(=O)CCCCCCCCCOc1ccc(C(=O)O)cc1)C(=O)O)NC(=O)[C@H](CCCN)NC(=O)[C@H](CC(=O)O)NC(=O)[C@H](CC(C)C)NC(=O)[C@](C)(CC(C)C)NC(=O)[C@@H](NC(=O)[C@H](CO)NC(=O)[C@H](CCc1ccc(O)cc1)NC(=O)[C@H](CC(=O)O)NC(=O)[C@H](CO)NC(=O)[C@@H](NC(=O)[C@](C)(Cc1ccccc1F)NC(=O)[C@@H](NC(=O)CNC(=O)[C@H](CCC(=O)O)NC(=O)C(C)(C)NC(=O)[C@@H](N)Cc1ccc(O)cc1)[C@@H](C)O)[C@@H](C)O)[C@@H](C)CC)[C@@H](C)CC)C(=O)N[C@@H](CCC(=O)O)C(=O)NCC(=O)NCC(=O)N1CCC[C@H]1C(=O)N[C@@H](CO)C(=O)N[C@@H](CO)C(=O)NCC(=O)N[C@@H](C)C(=O)N1CCC[C@H]1C(=O)N1CCC[C@H]1C(=O)N1CCC[C@H]1C(=O)N[C@@H](CO)C(N)=O [Example 320]
EC50 ([1]; hGLP-1R EC50, nM (SEM, n), cAMP, 37° C., 0.1% bovine casein (no human serum albumin)): 0.246 nM | EC50 ([2]; hGCGR EC50, nM (SEM, n), 0.1% bovine casein and 1.0% human serum albumin, 37° C.): > 9950 nM | EC50 ([2]; hGCGR EC50, nM (SEM, n), cAMP, 37° C., 0.1% bovine casein (no human serum albumin)): > 9950 nM | Emax ([3]; HEK293, read-out: hGIPR Emax, % ± SEM, 0.1% bovine casein and 1.0% human serum albumin, 37° C., percent of maximal response to GIP(1-42)NH2): 84.1% | Emax ([3]; HEK293, read-out: hGIPR Emax, % ± SEM, cAMP, 37° C., 0.1% bovine casein, percent of maximal response to GIP(1-42)NH2, arithmetic mean): 94.2%

CC[C@H](C)[C@H](NC(=O)[C@H](CC(C)C)NC(=O)[C@](C)(Cc1ccc(O)cc1)NC(=O)[C@@H](CCC(=O)O)NC(=O)[C@@H](NC(=O)[C@H](Cc1ccccc1)NC(=O)[C@H](CCC(=O)O)NC(=O)C(C)(C)NC(=O)[C@H](CCC(N)=O)NC(=O)[C@H](C)NC(=O)[C@H](CCCCNC(=O)[C@@H](N)CCCCNC(=O)CC[C@H](NC(=O)CCCCCCCCCCCCC(=O)O)C(=O)O)NC(=O)[C@H](CCCN)NC(=O)[C@H](CC(=O)O)NC(=O)[C@H](CC(C)C)NC(=O)[C@](C)(CC(C)C)NC(=O)[C@@H](NC(=O)[C@H](CO)NC(=O)[C@H](Cc1ccncc1)NC(=O)[C@H](CC(=O)O)NC(=O)[C@H](CO)NC(=O)[C@@H](NC(=O)[C@](C)(Cc1ccccc1F)NC(=O)[C@@H](NC(=O)CNC(=O)[C@H](CCC(=O)O)NC(=O)C(C)(C)NC(=O)[C@@H](N)Cc1ccc(O)cc1)[C@@H](C)O)[C@@H](C)O)[C@@H](C)CC)[C@@H](C)CC)C(=O)N[C@@H](CCC(=O)O)C(=O)NCC(=O)NCC(=O)N[C@@H](CCCCNC(=O)[C@@H](N)CCCCNC(=O)CC[C@H](NC(=O)CCCCCCCCCCCCC(=O)O)C(=O)O)C(=O)N[C@@H](CO)C(=O)N[C@@H](CO)C(=O)NCC(=O)N[C@@H](C)C(=O)N1CCC[C@H]1C(=O)N1CCC[C@H]1C(=O)N1CCC[C@H]1C(=O)N[C@@H](CO)C(N)=O [Example 38]
EC50 [1, 4]: 12.5 nM | Emax [1, 5]: 115 ± 2.53% | EC50 [1, 6]: 0.225 nM | EC50 [2, 7]: > 9950 nM | EC50 [2, 8]: > 9950 nM | EC50 [3, 9]: 0.539 nM | Emax [3, 10]: 88.8 ± 0.59% | EC50 [3, 11]: 0.0155 nM

CC[C@H](C)[C@H](NC(=O)[C@H](CCCN)NC(=O)[C@H](CC(=O)O)NC(=O)[C@H](CC(C)C)NC(=O)[C@](C)(CC(C)C)NC(=O)[C@@H](NC(=O)[C@H](CO)NC(=O)[C@H](Cc1ccncc1)NC(=O)[C@H](CC(=O)O)NC(=O)[C@H](CO)NC(=O)[C@@H](NC(=O)[C@](C)(Cc1ccccc1F)NC(=O)[C@@H](NC(=O)CNC(=O)[C@H](CCC(=O)O)NC(=O)C(C)(C)NC(=O)[C@@H](N)Cc1ccc(O)cc1)[C@@H](C)O)[C@@H](C)O)[C@@H](C)CC)C(=O)N[C@@H](C)C(=O)N[C@@H](CCC(N)=O)C(=O)NC(C)(C)C(=O)N[C@@H](CCC(=O)O)C(=O)N[C@@H](Cc1ccccc1)C(=O)N[C@H](C(=O)N[C@H](CCC(=O)O)C(=O)N[C@@](C)(Cc1ccc(O)cc1)C(=O)N[C@@H](CC(C)C)C(=O)N[C@H](C(=O)N[C@@H](CCCCNC(=O)COCCOCCNC(=O)COCCOCCNC(=O)CC[C@H](NC(=O)CCCc1ccc(C(C)(C)C)cc1)C(=O)O)C(=O)NCC(=O)NCC(=O)N1CCC[C@H]1C(=O)N[C@@H](CO)C(=O)N[C@@H](CO)C(=O)NCC(=O)N[C@@H](C)C(=O)N1CCC[C@H]1C(=O)N1CCC[C@H]1C(=O)N1CCC[C@H]1C(=O)N[C@@H](CO)C(=O)N[C@@H](CCCCNC(=O)COCCOCCNC(=O)COCCOCCNC(=O)CC[C@H](NC(=O)CCCc1ccc(C(C)(C)C)cc1)C(=O)O)C(N)=O)[C@@H](C)CC)[C@@H](C)CC [Example 206] (H-Y[Aib]EGT[αMePhe(2-F)]TSD[4Pal]SI[αMeL]LD[Orn]IAQ[Aib]EFI[dE][αMeY]LIK([AEEA-AEEA-γGlu-Butanoyl(4-(4-tBuPh))])GGPSSGAPPPSK([AEEA-AEEA-γGlu-Butanoyl(4-(4-tBuPh))])-NH2)
EC50 [1, 4]: 3.03 nM | Emax [1, 5]: 98.1% | Emax ([1]; HEK293, percent of maximal response to GLP-1(7-36)NH2, 37° C., 0.1% bovine casein, arithmetic mean): 100% | EC50 [1, 6]: 0.299 nM | EC50 [2, 7]: > 9950 nM | EC50 [2, 8]: > 9950 nM | EC50 [3, 9]: 0.242 nM | Emax [3, 10]: 77.6% | Emax ([3]; HEK293, percent of maximal response to GIP(1-42)NH2, 37° C., 0.1% bovine casein, arithmetic mean, read-out: hGIPR Emax, % ± SEM): 96.4% | EC50 [3, 11]: 0.0204 nM

CC[C@H](C)[C@H](NC(=O)[C@H](CCCN)NC(=O)[C@H](CC(=O)O)NC(=O)[C@H](CC(C)C)NC(=O)[C@](C)(CC(C)C)NC(=O)[C@@H](NC(=O)C(C)(C)NC(=O)[C@@H](NC(=O)[C@H](CC(=O)O)NC(=O)[C@H](CO)NC(=O)[C@@H](NC(=O)[C@](C)(Cc1ccccc1F)NC(=O)[C@@H](NC(=O)CNC(=O)[C@H](CCC(=O)O)NC(=O)C(C)(C)NC(=O)[C@@H](N)Cc1ccc(O)cc1)[C@@H](C)O)[C@@H](C)O)C(C)C)[C@@H](C)CC)C(=O)N[C@@H](C)C(=O)N[C@@H](CCC(N)=O)C(=O)NC(C)(C)C(=O)N[C@@H](CCCN)C(=O)N[C@@H](Cc1ccccc1)C(=O)N[C@H](C(=O)N[C@@H](CCCCNC(=O)COCCOCCNC(=O)COCCOCCNC(=O)CC[C@H](NC(=O)CCCCCCCCCCCCC(=O)O)C(=O)O)C(=O)N[C@@](C)(Cc1ccc(O)cc1)C(=O)N[C@@H](CC(C)C)C(=O)N[C@H](C(=O)N[C@@H](CCCCNC(=O)COCCOCCNC(=O)COCCOCCNC(=O)CC[C@H](NC(=O)CCCCCCCCCCCCC(=O)O)C(=O)O)C(=O)NCC(=O)NCC(=O)N1CCC[C@H]1C(=O)N[C@@H](CO)C(=O)N[C@@H](CO)C(=O)NCC(=O)N[C@@H](C)C(=O)N1CCC[C@H]1C(=O)N1CCC[C@H]1C(=O)N1CCC[C@H]1C(=O)N[C@@H](CO)C(N)=O)[C@@H](C)CC)[C@@H](C)CC [Example 317]
Emax [1, 5]: 98.1% | EC50 ([1]; cAMP, 37° C., 0.1% bovine casein (no human serum albumin), read-out: hGLP-1R EC50, nM (SEM, n)): 1.34 nM | EC50 [2, 7]: > 9950 nM | EC50 ([2]; cAMP, 37° C., 0.1% bovine casein (no human serum albumin), read-out: hGCGR EC50, nM (SEM, n)): > 9950 nM | EC50 [3, 9]: 2.03 nM | Emax [3, 10]: 84.4% | Emax ([3]; HEK293, cAMP, 37° C., 0.1% bovine casein, percent of maximal response to GIP(1-42)NH2, arithmetic mean, read-out: hGIPR Emax, % ± SEM): 112% | EC50 ([3]; cAMP, 37° C., 0.1% bovine casein (no human serum albumin)): 0.0587 nM
